How the values were obtained:
[1] = Calcium binding: fluorescence titration in Ca++ buffers (0-39 μM), Kd calculated; conditions: fluorescence change on calcium binding
Procedure: (§1) In all cases, samples were dissolved in nanopure(np)-H2O at concentrations of approximately 1 mg/mL, except Compound 18 which was dissolved in 1:1 DMSO:npH2O. Non-quantitative aliquots of these solutions were added to approximately 3 mL of 39 μM Ca++ buffer, 100 mM KCl, 30 mM MOPS (pH7.2) (Compounds 5, 10, 13), Zero Ca++ buffer, 100 mM KCl, 30 mM MOPS (pH7.2) (Compound 18), or npH2O (Compound 21). Absorption spectra were obtained using a Perkin Elmer UV/Vis Spectrometer (Lambda 35 or 40). Fluorescence samples were prepared by pipetting aliquots of respective stock solutions to a series of disposable cuvettes containing 2 mL of Ca++ buffers from Calcium Calibration Buffer Kit #2 (Invitrogen cat.#3009) (0-39 μM). The final concentration of compound ranged from approximately 0.1-4 μM. Samples were excited at their wavelength of maximum absorption and spectra were obtained using a Perkin Elmer Luminescence Spectrometer (LS50B, LS55). Emission intensities were recorded at the respective maxima and Kd values calculated.

[2] = Absorption and fluorescence emission spectra of calcium binding compounds; format: physicochemical; conditions: for λem (nm): emission maximum, excited at wavelength of maximum absorption, Ca++ buffers 0-39 μM; for λex (nm): wavelength of maximum absorption, 39 μM Ca++ buffer, 100 mM KCl, 30 mM MOPS pH7.2 (Compounds 5, 10, 13), Zero Ca++ buffer (Compound 18), npH2O (Compound 21)
Procedure: as §1

| SMILES | ΔF = Fb/Fo [1] | λem (nm) [2] [nm] | λex (nm) [2] [nm] |
| --- | --- | --- | --- |
| Cc1ccc(N(CC(=O)[O-])CC(=O)[O-])c(OCCOc2cc(CN3C(=O)c4cccc5c(N)ccc(c45)C3=O)ccc2N(CC(=O)[O-])CC(=O)[O-])c1.[K+].[K+].[K+].[K+] [Compound 13] | 12 | 550 | 432 |
| Cc1ccc(N(CC(=O)[O-])CC(=O)[O-])c(OCCOc2cc(CNS(=O)(=O)c3cccc4c(N(C)C)cccc34)ccc2N(CC(=O)[O-])CC(=O)[O-])c1.[K+].[K+].[K+].[K+] [Compound 5] | 3 | 549 | 331 |
| Cc1ccc(N(CC(=O)[O-])CC(=O)[O-])c(OCCOc2cc(CNC(=O)c3cc(=O)cc4oc5cc(N(C)C)ccc5nc3-4)ccc2N(CC(=O)[O-])CC(=O)[O-])c1.[Li+].[Li+].[Li+].[Li+] [Compound 21] | 11 | 641 | 612 |
| Cc1ccc(N(CC(=O)[O-])CC(=O)[O-])c(OCCOc2cc(CNC(=O)c3c4oc5cc(O)ccc5nc-4ccc3=O)ccc2N(CC(=O)[O-])CC(=O)[O-])c1.[Li+].[Li+].[Li+].[Li+] [Compound 18] | 5 | 589 | 550 |

Reference: US9846168B2, “Fluorescent metal ion indicators with large stokes shifts” (LIFE TECHNOLOGIES CORPORATION, priority 2004, dated 2017)
